The source of these data is patent US12049483B2, “Selective and noncovalent inhibitors of oncogenic RAS mutants” (New York University, priority 2020, dated 2024).

In one assay the target is KRAS(G12C) (Homo sapiens, UniProt P01116, G12C). Kind of assay: Competitive binding assay of 12VC1 against known interaction partners of RAS (yeast display). Set-up: KRAS4B residues 1-174 containing G12C, G12V, G12D, G13D, Q61L, WT; His6 (N, cleaved yes); Avi-tag (N, cleaved yes); made in house; host or cells: E. coli BL21(DE3).
In the next assay the target is T1, NRAS(WT) (Homo sapiens, UniProt P01111).
T1 construct: made in house; host or cells: E. coli BL21(DE3) with pBirA
T1 sequence (P01111 whole entry): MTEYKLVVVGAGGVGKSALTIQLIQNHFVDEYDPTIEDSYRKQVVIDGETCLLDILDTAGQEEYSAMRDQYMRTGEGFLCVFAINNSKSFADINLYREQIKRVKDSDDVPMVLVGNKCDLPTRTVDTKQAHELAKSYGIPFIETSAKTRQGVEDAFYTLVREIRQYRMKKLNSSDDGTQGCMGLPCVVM
Kind of assay: Yeast display binding titration, NRAS(WT). As to conditions: GTPγS and GDP bound states. On the procedure:
(§1) Nucleotide exchange of RAS. Purified RAS proteins used in binding experiment and crystallization were prepared by diluting stock protein (typically containing 20-250 μM RAS) 25 times with 20 mM Tris-Cl buffer pH 7.5 containing 5 mM EDTA, 0.1 mM DTT and 1 mM final concentration of a nucleotide (GDP or GTPγS). Samples were incubated at 30° C. for 30 minutes. MgCl2 was then added to the sample at a final concentration of 20 mM and the solution was further incubated on ice for at least 5 minutes prior to use.
(§2) Monobody development. General procedures for the development of monobodies against purified protein targets have been described previously. After four rounds of phage display library selection using biotinylated KRAS(G12C) at concentrations of 100 nM, 100 nM, 50 nM and 50 nM, the genes encoding monobodies from the enriched phage pool were transferred to a yeast display vector, which was used to construct yeast-display libraries. The yeast display libraries were sorted using a Bio-Rad S3e fluorescence-activated cell sorter or a […] II cell sorter (BD Biosciences). […] Single clones were then screened for selective binding to RAS mutants. The expression of monobodies on the surface of yeast cells were detected using mouse anti-VS and anti-mouse IgG-FITC conjugate. Target binding was detected with neutravidin Dylight650. Yeast cells were analyzed using an iQue flow cytometer (Sartorius). […]

The target in another assay is T2, KRAS(G13D) (Homo sapiens, UniProt P01116, G13D).
T2 construct: KRAS4B residues 1-174 containing G12C, G12V, G12D, G13D, Q61L, WT; made in house; host or cells: E. coli BL21(DE3) with pBirA
As to the kind of experiment: Yeast display binding titration, KRAS(G13D). As to conditions: GTPγS and GDP bound states. As to the method:
as §1, §2

The next assay deals with ERK activation (pERK). Kind of assay: ERK activation in dox-inducible monobody-expressing cell lines. It counts as cell-based. On the procedure:
Cell signaling assay and quantification of immunoblots. Cells were lysed in RIPA buffer (50 mM Tris-Cl pH 8, 150 mM NaCl, 5 mM EDTA pH8, 0.1% SDS, 1% NP40) supplemented with protease inhibitors (Roche; 5892991001) and phosphatase inhibitors (54 mM β-glycerophosphate, 10 mM NaF, 1 mM sodium vanadate) for 15 minutes on ice, and centrifuged at 15,000 g for 15 minutes. The supernatant was collected and measured for total protein amount using BCA assay (Thermo Scientific; 23227). Lysate (7-20 μg per well) was loaded onto a pre-cast SDS gel (BioRad; 456-1096) followed by electrophoresis. The proteins were then transferred from the gel to a low fluorescence background PVDF membrane (Millipore; IPFL00010) or regular PVDF membrane (Millipore; ISEQ00010) depending on whether fluorescence or chemiluminescence detection was performed. Phospho-ERK was detected using a rabbit anti-pERK antibody (Cell Signaling; 9101S) and total ERK was detected using a rabbit anti-ERK antibody (Cell Signaling; 9102S). Monobody expression was detected using mouse anti-Flag antibody (Sigma; F3165) or anti-HA tag antibody (BioLegend; 901516). Loading control was detected with primary antibody against tubulin-alpha (Thermo Scientific, 62204) or against cytochrome oxidase (COX IV) (Li-Cor, 926-42214). The total RAS level was detected using a pan-RAS antibody (SCBT, sc-166691). The KRAS level was determined using a KRAS-specific antibody (Sigma, WH0003845M1). For fluorescence detection of immunoblots, the membranes were imaged with a Licor Odyssey Clx imager (Li-Cor Bioscience) using IRDye anti-Rabbit 800CW and anti-Mouse 680LT (Li-Cor Bioscience, 926-32211 and 926-68020, respectively) as secondary antibodies. […] Band intensities of western blot were analyzed with Image Studio Lite version 5.2 (Li-Cor Bioscience). To quantify protein abundance in the degradation experiment, the intensities of pERK, RAS, KRAS, and Flag/HA tag bands were first normalized against the loading control of the perspective blot, which were either tubulin-α, COX IV or total ERK, followed by subsequent normalization to the zero time point. […]

Entries after “also recorded” stand apart in the source; their conditions may differ.

Description for KRAS(G12C): After four rounds of phage display library selection using biotinylated KRAS(G12C) at concentrations of 100 nM, 100 nM, 50 nM and 50 nM, the genes encoding monobodies from the enriched phage pool were transferred to a yeast display vector, which was used to construct yeast-display libraries. The yeast display libraries were sorted using a Bio-Rad S3e fluorescence-activated cell sorter or a [sequence] II cell sorter (BD Biosciences). […] The expression of monobodies on the surface of yeast cells were detected using mouse anti-VS and anti-mouse IgG-FITC conjugate. Target binding was detected with neutravidin Dylight650. Yeast cells were analyzed using an iQue flow cytometer (Sartorius).

For the sequence “VSSVPTKLEVVAATPTSLLISWDAPAVTVFFYVITYGETGHGVGAFQAFKVPGSKSTATISGLKPGVDYTITVYARGYSKQGPYKPSPISINYRT [12VC1]”, the “competition with RAF1-RBD for binding to RAS” value on KRAS(G12C) is “competed”. In addition, the results for the binding entry on NRAS(WT) and on KRAS(G13D) were “no binding; also recorded: did not detectably bind” and “no binding”, respectively. The “ERK activation in H358 cells” value in the assay on ERK activation (pERK) (H358, after 24 and 48 hours, dox-induced expression or ARS1620 treatment) is “effectively inhibited”. For the same sequence, the ERK activation entry in the assay on ERK activation (pERK) (KRAS(G12C) (H358 and H23) and KRAS(G12V) (PATU8902 and H441) cell lines, dox-induced expression) is “potently inhibited”.
